Broadly, the melting point is the temperature, or range, at which the solid turns liquid. Usually IC50 stands for the concentration that gives 50% inhibition.

Consider 22 compounds from US10239836B2, “Benzenecarbothioccyclopenta[c] pyrrole-1,3-dione compounds and process for synthesis thereof” (Council of Scientific & Industrial Research, priority 2014, dated 2019).

Like-named read-outs stand apart in the source and are kept apart here.

In series [1] the test system is LPS induced NO generation in RAW 264.7 cells. Briefly: Inhibition of LPS induced NO generation (nitrite, Griess reagent). The following applies: for IC50: Mus musculus, read-out: NO inhibition (B) IC50; for Selectivity index (A/B): cytotoxicity IC50 / NO inhibition IC50, RAW 264.7 cells. It counts as cell-based, Mouse. How it is done:
(§1) Mouse macrophage cell line RAW 264.7 was maintained in laboratory at 37° C. in
(§2) RPMI-1640 media supplemented with 10% heat-inactivated fetal bovine serum (FBS) and penicillin/streptomycin.
Nitrite, a stable oxidized product of NO, was measured in culture supernatant using Griess reagent (Sigma Aldrich) according to a previously reported method (2). After overnight seeding in 96-well plate (2×10^4 cells/well), RAW 264.7 cell was treated with lipopolysaccharide (LPS; Sigma) at a concentration of 1 μg/ml along with different doses of compounds (as determined from cytotoxicity assay) in serum-free culture for 24 h. Following treatment, media was collected and centrifuged at 2,000 rpm for 5 min to remove cellular debris. 50 μl of this media was then reacted with equal volume of Griess reagent for 15 min at room temperature in dark and absorbance was taken at 540 nm using Microplate reader (Biorad, USA). Nitrite concentrations were determined using standard solutions of sodium nitrite prepared in cell culture medium.
Background: Griess reagent forms a coloured azo dye with nitrite.

Series [2] can be described thus: Cytotoxicity assay (MTT viability). It counts as cell-based, Mouse. To be noted: mouse; RAW 264.7 cells, MTT, 24 h treatment, serum free. How it is done: as §1, §2
Viability of cultured cells was determined by (4,5-dimethylthiazol-2-yl)-2,5-diphenyltetrazolium bromide (MTT; Sigma) as described earlier (1). RAW 264.7 was seeded in triplicate at a density of 2×10^4 cells per well on a 96-well plate. […] MTT solution (0.5 mg/ml) was then added to each well and incubate for 4 h at 37° C. At the end of the incubation period, the medium was removed and the resulting purple formazan was solubilized with acidic isopropanol (0.1 N HCl in absolute isopropanol), and the absorbance was read at 570 nm using Biorad Microplate reader (Biorad, USA).

Setting [3] is: RAW264.7, RAW 264.7 cells, LPS 1 μg/ml, 24 h, serum-free.

`O=C(S[C@@]12CC[C@@H](O)[C@@H]1C(=O)NC2=O)c1ccccc1Cl` (relative stereo) [Compound 14, S-((3aS*,6R*,6aR*)-6-Hydroxy-1,3-dioxohexahydrocyclopenta[c]pyrrol-3a(1H)-yl) 2-chlorobenzothioate] displayed a melting point of 154 to 158 °C. In series [1] (setting [3]), the 50% inhibitory concentration (IC50) was 178 µM. In addition, the “Selectivity index (A/B)” value in series [1] stood at 4.022. In addition, the IC50 at 24 h in series [2] stood at 717 µM.

For `O=C1NC(=O)C2(SC(=O)c3ccc(F)cc3)CCC=C12` (stereo not shown), the melting point is 191 to 192 °C.

Take `O=C1NC(=O)C2=C1CCC2O` (stereo in doubt) [(−)-4, (R)-4-Hydroxy-5,6-dihydrocyclopenta[c]pyrrole-1,3(2H,4H)-dione]: the IC50 in series [1] (setting [3]) turned out to be 121 µM. Further, the “Selectivity index (A/B)” value in series [1] was 2.631. Also, the IC50 at 24 h in series [2] was found to be 319 µM.

Regarding `O=C1NC(=O)C2=C1CCC2O` (stereo in doubt) [(+)-4, (S)-4-Hydroxy-5,6-dihydrocyclopenta[c]pyrrole-1,3(2H,4H)-dione], the IC50 in series [1] (setting [3]) came to 95.9 µM. Besides, the “Selectivity index (A/B)” value in series [1] was 2.26. Besides, the IC50 at 24 h in series [2] turned out to be 217 µM.

Take `CC(=O)OC1CCC2=C1C(=O)NC2=O` (racemic) [Compound 5, 1,3-dioxo-1,2,3,4,5,6-hexahydrocyclopenta[c]pyrrol-4-yl acetate]: the IC50 in series [1] (setting [3]) was found to be 42 µM. For the same compound, the “Selectivity index (A/B)” value in series [1] is on record as 14.67. In series [2], the IC50 at 24 h turned out to be 616 µM.

As to `O=C(Cc1ccccc1)S[C@]12CC[C@@H](O)[C@H]1C(=O)NC2=O` (relative stereo) [Compound 9, S-((3aR*,6R*,6aS*)-6-Hydroxy-1,3-dioxohexahydrocyclopenta[c]pyrrol-3a(1H)-yl) 2-phenylethanethioate], the IC50 in series [1] (setting [3]) was 132 µM. For the same compound, in series [1], the “Selectivity index (A/B)” value is 6.322. In series [2], this compound came in with an IC50 at 24 h of 834 µM.

With `O=C(Cc1ccccc1)S[C@@]12CC[C@@H](O)[C@@H]1C(=O)NC2=O` (relative stereo) [Compound 10, S-((3aS*,6R*,6aR*)-6-Hydroxy-1,3-dioxohexahydrocyclopenta[c]pyrrol-3a(1H)-yl) 2-phenylethanethioate], the IC50 in series [1] (setting [3]) was found to be 143 µM. Moreover, in series [1], the “Selectivity index (A/B)” value worked out at 5.418. Besides, the IC50 at 24 h in series [2] was found to be 774 µM.

Regarding `O=C(Cc1ccccc1)S[C@]12CCC[C@H]1C(=O)NC2=O` (relative stereo) [Compound 19, S-((3aR*,6aS*)-1,3-Dioxohexahydrocyclopenta[c]pyrrol-3a(1H)-yl) 2-phenylethanethioate], the IC50 in series [1] (setting [3]) was determined as 56.9 µM. Further, in series [1], the “Selectivity index (A/B)” value was 7.48. The same compound had an IC50 at 24 h in series [2] of 426 µM.

For the compound `O=C(S)c1ccc(O)cc1` [Compound 6, 4-hydroxybenzothioic S-acid], the IC50 in series [1] (setting [3]) stood at 127 µM. Also, in series [1], the “Selectivity index (A/B)” value was found to be 22.99. The compound also showed an IC50 at 24 h in series [2] of 2910 µM.

In the case of `CC(=O)OC1CC[C@]2(SC(=O)c3ccc(F)cc3)C(=O)NC(=O)[C@H]12` (relative stereo) [Compound 33, (3aS*,6aR*)-6a-((4-Fluorobenzoyl)thio)-1,3-dioxooctahydrocyclopenta[c]pyrrol-4-yl acetate], the IC50 in series [1] (setting [3]) was found to be 34.3 µM. In addition, the “Selectivity index (A/B)” value in series [1] stood at 353.8076. For the same compound, it took 12100 µM to reach half-maximal inhibition in series [2] (IC50 at 24 h).

On to `CC(=O)SC1CC[C@]2(SC(C)=O)C(=O)NC(=O)[C@H]12` (relative stereo) [Compound 28, S,S′-((3aR*,6aR*)-1,3-Dioxohexahydrocyclopenta[c]pyrrole-3a,6(1H)-diyl) diethanethioate], for which the IC50 in series [1] (RAW264.7, 24 h) stood at 19.8 µM. Further, in series [1], the “Selectivity index (A/B)” value is 505.4343. Inhibition in series [2] was half-maximal at 10000 µM (IC50 at 24 h).

For `O=C(S[C@@]12CC[C@@H](O)[C@@H]1C(=O)NC2=O)c1cccs1` (relative stereo) [Compound 12, S-((3aS*,6R*,6aR*)-6-Hydroxy-1,3-dioxohexahydrocyclopenta[c]pyrrol-3a(1H)-yl) thiophene-2-carbothioate], the IC50 in series [1] (setting [3]) was 36.6 µM. The “Selectivity index (A/B)” value in series [1] is on record as 297.0519. The IC50 at 24 h in series [2] stood at 10900 µM.

In the case of `CC(=O)OC1CC[C@]2(SC(=O)Cc3ccccc3)C(=O)NC(=O)[C@H]12` (relative stereo) [Compound 32, (3aS*,6aR*)-1,3-Dioxo-6a-((2-phenylacetyl)thio) octahydrocyclopenta[c]pyrrol-4-yl acetate], the IC50 in series [1] (RAW264.7, 24 h) was 68.2 µM. Moreover, the “Selectivity index (A/B)” value in series [1] was determined as 23.57. It took 1610 µM to reach half-maximal inhibition in series [2] (IC50 at 24 h).

Regarding `O=C(S[C@]12CC[C@H](O)[C@H]1C(=O)NC2=O)c1ccc(O)cc1` [(−)-2, S-((3aR,6S,6aS)-6-hydroxy-1,3-dioxohexahydrocyclopenta[c]pyrrol-3a(1H)-yl) 4-hydroxybenzothioate], the IC50 in series [1] (setting [3]) came to 140 µM. Also, the “Selectivity index (A/B)” value in series [1] came to 9.85. For the same compound, in series [2], half-maximal inhibition (IC50 at 24 h) was put at 1380 µM.

As for `O=C(S[C@@]12CC[C@@H](O)[C@@H]1C(=O)NC2=O)c1ccc(O)cc1` (racemic) [(±)-2, S-((3aS*,6R*,6aR*)-6-hydroxy-1,3-dioxohexahydrocyclopenta[c]pyrrol-3a(1H)-yl) 4-hydroxybenzothioate], in series [1] (setting [3]), the IC50 came out at 225 µM. For the same compound, in series [1], the “Selectivity index (A/B)” value is 1.925. Also, in series [2], the IC50 at 24 h amounted to 434 µM.

For `O=C(S[C@@]12CC[C@H](O)[C@@H]1C(=O)NC2=O)c1ccc(O)cc1` [(+)-1, S-((3aS,6S,6aR)-6-hydroxy-1,3-dioxohexahydrocyclopenta[c]pyrrol-3a(1H)-yl) 4-hydroxybenzothioate], the IC50 in series [1] (setting [3]) is 71.8 µM. For the same compound, the “Selectivity index (A/B)” value in series [1] worked out at 14.14. Half-maximal inhibition in series [2] (IC50 at 24 h) required 1020 µM.

Compound `O=C(S[C@@]12CC[C@@H](O)[C@@H]1C(=O)NC2=O)c1ccccc1O` (relative stereo) displayed a melting point of 213 to 216 °C.

Turning to `CC(=O)S[C@]12CC[C@@H](O)[C@H]1C(=O)NC2=O` (relative stereo) [Compound 7, S-((3aR*,6R*,6aS*)-6-Hydroxy-1,3-dioxohexahydrocyclopenta[c]pyrrol-3a(1H)-yl) ethanethioate], the IC50 in series [1] (setting [3]) worked out at 148 µM. In addition, the “Selectivity index (A/B)” value in series [1] was determined as 3.7762. Also, the IC50 at 24 h in series [2] is 558 µM.

For `CC(=O)OC1CC[C@]2(SC(=O)c3ccccc3Cl)C(=O)NC(=O)[C@H]12` (relative stereo) [Compound 34, (3aS*,6aR*)-6a-((2-Chlorobenzoyl)thio)-1,3-dioxooctahydrocyclopenta[c]pyrrol-4-yl acetate], the IC50 in series [1] (setting [3]) worked out at 101 µM. Moreover, in series [1], the “Selectivity index (A/B)” value was determined as 89.51. The IC50 at 24 h in series [2] was 9080 µM.

In the case of `CC(=O)OC1CC[C@]2(SC(=O)c3ccccc3)C(=O)NC(=O)[C@H]12` (relative stereo) [Compound 35, (3aS*,6aR*)-6a-(Benzoylthio)-1,3-dioxooctahydrocyclopenta[c]pyrrol-4-yl acetate], in series [1] (setting [3]), the IC50 amounted to 64.3 µM. Besides, the “Selectivity index (A/B)” value in series [1] turned out to be 29.74. The same compound yielded an IC50 at 24 h in series [2] of 1910 µM.

Compound `O=C1NC(=O)C2=C1CCC2SC(=O)c1ccccc1` (stereo not shown) displayed a melting point of 149 to 151 °C.

Regarding `O=C(SC1CC[C@]2(SC(=O)c3ccc(F)cc3)C(=O)NC(=O)[C@H]12)c1ccc(F)cc1` (relative stereo) [Compound 23, S,S′-((3aR*,6aR*)-1,3-Dioxohexahydrocyclopenta[c]pyrrole-3a,6(1H)-diyl) bis(4-fluorobenzothioate)], in series [1] (RAW264.7, 24 h), the half-inhibitory concentration (IC50) was 98.3 µM. Also, the “Selectivity index (A/B)” value in series [1] is 2.142. The midpoint of inhibition in series [2], the IC50 at 24 h, lay at 211 µM.
